Data: patent publication US20090054454A1, “BENZOFURANYL- AND BENZOTHIENYL- PIPERAZINYL QUINOLINES AND METHODS OF THEIR USE” (priority 2007, published 2009)

Legend:
[1] = molecular target: 5-HT transporter (Rattus norvegicus, UniProt P31652); assay: Rat Brain 3H-Paroxetine Binding Assay (RB 5HT Transporter); conditions: read-out: RB-5HT Transporter % inhibition @ 1 μM concentration
[2] = molecular target: Human 5-HT Transporter (Homo sapiens, UniProt P31645); assay: Inhibition of 3H-5-HT Uptake by Cells Possessing the Human 5-HT Transporter (HC 5HT Transporter), Jar cells; conditions: HC-5HTC Transporter Ki (nM), Jar cells treated with staurosporine
[3] = molecular target: T1, human 5-HT1A receptors (Homo sapiens, UniProt P08908); assay: Displacement of [3H] 8-OH-DPAT from the 5-HT1A serotonin receptor; format: binding; conditions: 1 μM concentration; starred cells of the 5-HT1A column
T1 construct: expressed in transfected cells; host or cells: CHO cells (stably transfected)
T1 sequence (P08908 1-422): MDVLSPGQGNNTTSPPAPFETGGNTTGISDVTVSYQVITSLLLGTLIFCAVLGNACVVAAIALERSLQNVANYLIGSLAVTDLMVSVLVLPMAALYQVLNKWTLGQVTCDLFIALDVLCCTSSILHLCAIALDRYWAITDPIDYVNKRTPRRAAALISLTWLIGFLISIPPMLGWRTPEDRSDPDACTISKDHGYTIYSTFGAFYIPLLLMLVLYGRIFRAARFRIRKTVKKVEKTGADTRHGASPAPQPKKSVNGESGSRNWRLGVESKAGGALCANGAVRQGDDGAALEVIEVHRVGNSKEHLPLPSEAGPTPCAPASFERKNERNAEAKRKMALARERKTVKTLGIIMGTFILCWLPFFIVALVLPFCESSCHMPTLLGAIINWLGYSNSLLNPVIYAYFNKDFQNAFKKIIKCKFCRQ

Chain of 5-HT transporter (P31652 whole entry): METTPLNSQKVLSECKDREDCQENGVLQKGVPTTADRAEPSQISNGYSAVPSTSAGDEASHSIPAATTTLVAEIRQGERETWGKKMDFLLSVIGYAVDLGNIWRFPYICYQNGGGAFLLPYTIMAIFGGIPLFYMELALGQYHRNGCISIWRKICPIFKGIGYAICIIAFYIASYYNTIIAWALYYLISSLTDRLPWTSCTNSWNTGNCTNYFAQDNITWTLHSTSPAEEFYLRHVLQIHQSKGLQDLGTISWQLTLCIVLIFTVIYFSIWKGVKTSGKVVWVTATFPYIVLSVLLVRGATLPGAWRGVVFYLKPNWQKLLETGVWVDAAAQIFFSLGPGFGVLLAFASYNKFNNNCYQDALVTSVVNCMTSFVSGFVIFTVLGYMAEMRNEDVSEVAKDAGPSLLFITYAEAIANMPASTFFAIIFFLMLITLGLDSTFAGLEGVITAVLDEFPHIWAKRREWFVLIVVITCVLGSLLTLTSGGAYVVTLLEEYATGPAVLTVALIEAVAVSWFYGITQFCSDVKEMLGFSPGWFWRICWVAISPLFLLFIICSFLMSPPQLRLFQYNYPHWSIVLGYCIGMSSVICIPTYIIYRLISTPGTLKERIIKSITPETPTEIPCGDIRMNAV
Chain of Human 5-HT Transporter (P31645 whole entry): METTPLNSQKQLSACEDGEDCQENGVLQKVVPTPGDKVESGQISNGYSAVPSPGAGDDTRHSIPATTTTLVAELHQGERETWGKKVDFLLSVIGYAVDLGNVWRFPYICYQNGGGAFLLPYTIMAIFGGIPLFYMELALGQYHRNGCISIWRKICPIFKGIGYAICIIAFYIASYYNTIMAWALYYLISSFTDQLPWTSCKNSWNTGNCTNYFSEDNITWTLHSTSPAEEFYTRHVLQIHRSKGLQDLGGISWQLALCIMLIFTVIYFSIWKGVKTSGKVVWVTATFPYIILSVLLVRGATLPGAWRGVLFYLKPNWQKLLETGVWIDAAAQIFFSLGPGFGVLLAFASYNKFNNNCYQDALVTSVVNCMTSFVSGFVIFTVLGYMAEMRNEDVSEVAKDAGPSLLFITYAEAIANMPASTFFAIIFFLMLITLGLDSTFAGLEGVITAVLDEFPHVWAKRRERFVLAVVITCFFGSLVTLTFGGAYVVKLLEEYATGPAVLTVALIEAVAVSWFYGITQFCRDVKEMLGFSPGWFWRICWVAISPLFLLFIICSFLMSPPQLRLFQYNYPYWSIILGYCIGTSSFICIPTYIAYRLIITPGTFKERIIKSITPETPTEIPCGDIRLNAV

inhibition at 1 µM [1] [%]	Ki [2] [nM]	inhibition at 1 µM [3] [%]	melting point [°C]	SMILES
32	2150			Clc1cc(N2CCN(CCc3coc4cc(Cl)ccc34)CC2)c2ncccc2c1 [Compound 7, 8-{4-[2-(6-chloro-1-benzofuran-3-yl)ethyl]-1-piperazinyl}-6-chloro-quinoline]
24	3730	46		COc1ccc2occ(CCN3CCN(c4cc(C(C)C)cc5cccnc45)CC3)c2c1 [Compound 24, 8-{4-[2-(5-methoxy-1-benzofuran-3-yl)ethyl]-1-piperazinyl}-6-isopropyl-quinoline]
25	3490			Fc1cc(N2CCN([C@H]3CC[C@@H](c4csc5ccc(F)cc54)CC3)CC2)c2ncccc2c1 [Compound 47, 6-fluoro-8-{4-[4-cis(5-fluoro-1-benzothien-3-yl)cyclohexyl]piperazin-1-yl}quinoline]
	751	42	195 to 197	Fc1ccc2scc([C@H]3CC[C@H](N4CCN(c5ccc(Cl)c6cccnc56)CC4)CC3)c2c1 [Compound 52, 5-chloro-8-{4-[4-trans(5-fluoro-1-benzothien-3-yl)cyclohexyl]piperazin-1-yl}quinoline]
